Results: US8969554B2, “6-acyl-1,2,4-triazine-3,5-dione derivative and herbicides” (Kumiai Chemical Industry Co., Ltd., priority 2010, dated 2015)

Assays:
Type in all cases: in vivo
Setaria viridis = test: Herbicidal activity by field foliage treatment (Test example 3); conditions: 1000 g effective component per hectare, day 14 after the treatment;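 note: index 0 to 10 in 10% steps of herbicidal effect with 10 meaning complete death and 0 below 10%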
Procedure: Test example 3 Test for Determining Herbicidal Activity by Field Foliage Treatment A 80 cm^2 wide plastic pot was filled with a field soil and seeds of each of Indian millet and A. retroflexus were sowed and then incubated for 2 weeks in a green house. The wettable powder produced with reference to the Formulation example 1 was diluted water, and applied from the air to entire body of the plant as foliage treatment by using a small sprayer in an amount of 1000 liters per hectare so that the effective component is 1000 g per hectare. After that, the plants were cultivated in a greenhouse, and on day 14 after the treatment, evaluation was made by the criteria described in Table 72 for determining the herbicidal effects.

Echinochloa crus-galli [1] = test: as above; parameters: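 index 0 to 10 in 10% steps of herbicidal effect with 10 meaning complete death and 0 below 10%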; conditions: 1000 g effective component per hectare, day 14 after the treatment
Procedure, shortened: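 Potted field-soil plants grown 2 weeks in a greenhouse were sprayed over the whole foliage with diluted wettable powder at 1000 L/ha, delivering 1000 g active ingredient per hectare. Herbicidal effect scored by visual criteria 14 days after treatment.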

A. retroflexus [2] = test: as above; parameters: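 index 0 to 10 in 10% steps of herbicidal effect with 10 meaning complete death and 0 below 10%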; conditions: 1000 g effective component per hectare, day 14 after the treatment
Procedure, shortened: (§1)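 Field soil in pots; Indian millet and A. retroflexus grown 2 weeks in greenhouse, then sprayed over whole plant with water-diluted wettable powder at 1000 L/ha, giving 1000 g active component/ha. Herbicidal effect scored by set criteria on day 14 after treatment.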

Indian millet [3] = test: as above; parameters: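 index 0 to 10 in 10% steps of herbicidal effect with 10 meaning complete death and 0 below 10%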; conditions: 1000 g effective component per hectare, day 14 after the treatment
Procedure, shortened: as §1

Monochoria vaginalis = test: Herbicidal activity by paddy field soil treatment (Test Example 1); parameters: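 index 0 to 10 in 10% steps of herbicidal effect with 10 meaning complete death and 0 below 10%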; conditions: 1000 g of effective component per hectare, evaluated on day 21 after the treatment, criteria of Table 72
Procedure, shortened: (§2)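 Paddy soil in pots sown with seeds, flooded to 3 cm; next day wettable powder diluted in water applied to water surface at 1000 g active ingredient/ha. Greenhouse-grown; herbicidal effect scored on day 21 after treatment against rating criteria.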

Echinochloa oryzicola = test: as above; parameters: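 index 0 to 10 in 10% steps of herbicidal effect with 10 meaning complete death and 0 below 10%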; conditions: 1000 g of effective component per hectare, evaluated on day 21 after the treatment, criteria of Table 72
Procedure, shortened: as §2

Scirpus juncoides Rocxb. = test: as above; parameters: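 index 0 to 10 in 10% steps of herbicidal effect with 10 meaning complete death and 0 below 10%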; conditions: applied on water surface, 1000 g of effective component per hectare, day 21 after the treatment
Procedure, shortened: as §2

A. retroflexus [4] = test: Herbicidal activity by field soil treatment (Test example 2); parameters: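 index 0 to 10 in 10% steps of herbicidal effect with 10 meaning complete death and 0 below 10%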; conditions: 1000 g effective component per hectare, day 21 after the treatment
Procedure, shortened: (§3)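 Seeds of the four weeds sown in field soil in pots; wettable powder diluted in water sprayed pre-emergence on soil surface at 1000 L/ha, giving 1000 g active per hectare. Greenhouse grown; herbicidal effect scored on day 21 after treatment by set criteria.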

Indian millet [5] = test: as above; parameters: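 index 0 to 10 in 10% steps of herbicidal effect with 10 meaning complete death and 0 below 10%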; conditions: 1000 g effective component per hectare, day 21 after the treatment
Procedure, shortened: as §3

Echinochloa crus-galli [6] = test: as above; parameters: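 index 0 to 10 in 10% steps of herbicidal effect with 10 meaning complete death and 0 below 10%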; conditions: 1000 g effective component per hectare, day 21 after the treatment
Procedure, shortened: as §3

foxtail = test: as above; conditions: 1000 g effective component per hectare, day 21 after the treatment;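 note: index 0 to 10 in 10% steps of herbicidal effect with 10 meaning complete death and 0 below 10%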
Procedure: [table] Test for Determining Herbicidal Activity by Field Soil Treatment A 80 cm^2 wide plastic pot was filled with a field soil and seeds of each of Echinochloa crus-galli, foxtail, Indian millet, and A. retroflexus were sowed and then covered with soil. The wettable powder produced with reference to the Formulation example 1 was diluted water, and applied on the soil surface by using a small sprayer in an amount of 1000 liters per hectare so that the effective component is 1000 g per hectare. After that, the plants were cultivated in a greenhouse, and on day 21 after the treatment, evaluation was made by the criteria described in Table 72 for determining the herbicidal effects.

Row | SMILES | herbicidal effect index, Setaria viridis (Setaria viridis) | herbicidal effect index, Echinochloa crus-galli (Echinochloa crus-galli [1]) | herbicidal effect index, Amaranthus retroflexus (A. retroflexus [2]) | herbicidal effect index, Abutilon theophrasti (Indian millet [3]) | Herbicidal effects index number, Monochoria vaginalis (Monochoria vaginalis) | Herbicidal effects index number, Echinochloa oryzicola (Echinochloa oryzicola) | herbicidal effect index, S. juncoides Rocxb. (Scirpus juncoides Rocxb.) | herbicidal effect index, Amaranthus retroflexus (A. retroflexus [4]) | herbicidal effect index, Abutilon theophrasti (Indian millet [5]) | herbicidal effect index, Echinochloa crus-galli (Echinochloa crus-galli [6]) | herbicidal effect index, Setaria viridis (foxtail)
1 | Cn1nc(C(=O)C2=C(O)CCCC2=O)c(=O)n(-c2ccc(F)cn2)c1=O [I-184] | 8 | 10 | 10 | 9 | 10 | 10 | 10 | 10 | 10 | 8 | 
2 | Cn1nc(C(=O)C2=C(O)CCCC2=O)c(=O)n(-c2ccc(Cl)cn2)c1=O [I-185] | 9 | 10 | 10 | 9 | 9 | 8 | 9 | 10 | 10 | 9 | 
3 | Cn1nc(C(=O)C2=C(O)CCCC2=O)c(=O)n(-c2ccc(C(F)(F)F)cn2)c1=O [I-187] | 8 | 8 | 10 | 9 | 10 | 10 | 10 | 10 | 9 | 7 | 
4 | Cn1nc(C(=O)C2=C(O)CCCC2=O)c(=O)n(-c2ccsc2)c1=O [I-199] | 8 | 10 | 9 | 9 | 8 | 9 | 9 | 10 | 10 | 9 | 
5 | Cn1nc(C(=O)C2=C(O)CCCC2=O)c(=O)n(-c2cccc(-c3ccccc3)c2)c1=O [I-270] |  | 9 | 10 | 9 | 8 | 8 | 8 | 10 |  | 8 | 7
6 | Cn1c(=O)c(C(=O)C2=C(O)CCCC2=O)nn(-c2ccccn2)c1=O [I-274] | 8 | 9 | 9 | 8 | 8 | 8 | 4 | 7 | 8 | 7 | 
7 | CCn1c(=O)c(C(=O)C2=C(O)CCCC2=O)nn(-c2ccccn2)c1=O [I-275] | 8 | 9 | 9 | 9 | 10 | 9 | 8 | 10 | 10 | 8 | 
8 | Cn1nc(C(=O)C2=C(O)CCCC2=O)c(=O)n(-c2cc(F)c(F)c(F)c2)c1=O [I-302] | 10 | 10 | 10 | 10 | 10 | 10 | 10 | 10 | 10 | 7 | 
9 | CON=C(C)Cn1c(=O)c(C(=O)C2=C(O)CCCC2=O)nn(C)c1=O [I-471] | 10 | 9 | 10 | 10 | 10 | 10 | 10 | 10 | 10 | 7 | 
10 | CC(C)N(c1ccccc1)n1c(=O)c(C(=O)C2=C(O)CCCC2=O)nn(C)c1=O [I-475] | 7 | 9 | 9 | 8 | 10 | 10 | 10 | 7 | 7 | 7 | 
11 | CC(Cn1c(=O)c(C(=O)C2=C(O)CCCC2=O)nn(C)c1=O)=NOC(C)C [I-479] | 7 | 9 | 10 | 9 | 10 | 10 | 10 | 10 | 10 | 9 | 
12 | CSc1c(Cl)cc(-n2c(=O)c(C(=O)O)nn(C)c2=O)cc1Cl [V-300] | 8 | 8 | 10 | 9 | 10 | 10 | 10 | 10 | 9 | 7 | 
13 | CON=C(C)Cn1c(=O)c(C(=O)O)nn(C)c1=O [V-365] | 10 | 9 | 10 | 10 | 10 | 10 | 10 | 10 | 10 | 7 | 
14 | CC(C)N(c1ccccc1)n1c(=O)c(C(=O)O)nn(C)c1=O [V-369] | 7 | 9 | 9 | 8 | 10 | 10 | 10 | 7 | 7 | 7 | 
15 | Cn1nc(C(=O)C2=C(O)C(C)(C)CCC2=O)c(=O)n(-c2ccccc2)c1=O [VI-5] | 10 | 10 | 10 | 10 | 10 | 10 | 10 | 10 | 10 | 8 | 
